biological target: T1, human kappa opioid receptor (Homo sapiens, UniProt P41145); assay: Binding assay, [3H]diprenorphine displacement on membranes from CHO cells (kappa assay); conditions: membranes from CHO cells expressing human kappa opioid receptor, ranges given when more than one data point
T1 construct: expressed in transfected cells; host or cells: CHO cells
Experimental: Binding assays on membranes from CHO cells expressing either human kappa, mu or delta opioid receptors were performed according to standard procedures. Briefly, frozen cell paste (70-80-mgs per 96 well plate) is homogenized in 50 mM Tris HCl buffer (pH 7.4 @ 4 degrees C.) containing 2.0 mM MgCl2 using a Polytron and spun in a centrifuge at 40,000 g for ten minutes. The final pellet is resuspended in assay buffer (50 mM Tris HCl buffer (pH 7.4) containing 1 mM EDTA, 5 mM MgCl2). Incubations were initiated by the addition of tissue to 96-well plates containing test drugs and 0.4-1 nM [3H]diprenorphine in a final volume of 250 ul). Non-specific binding was determined by radioligand binding in the presence of a saturating concentration of naltrexone (10 uM). After one hour incubation period at room temperature, assay samples were rapidly filtered through Whatman GF/B filters and rinsed with ice-cold 50 mM Tris buffer (pH 7.4). Membrane bound [3H]diprenorphine levels were determined by liquid scintillation counting of the filters in BetaScint. […] Ki values were calculated according to the Cheng Prusoff equation, Ki=IC50/(1+(L/Kd)), where L is the concentration of the radioligand used in the experiment and the Kd value is the dissociation constant for the radioligand (determined previously by saturation analysis).

T1 sequence (P41145 whole entry): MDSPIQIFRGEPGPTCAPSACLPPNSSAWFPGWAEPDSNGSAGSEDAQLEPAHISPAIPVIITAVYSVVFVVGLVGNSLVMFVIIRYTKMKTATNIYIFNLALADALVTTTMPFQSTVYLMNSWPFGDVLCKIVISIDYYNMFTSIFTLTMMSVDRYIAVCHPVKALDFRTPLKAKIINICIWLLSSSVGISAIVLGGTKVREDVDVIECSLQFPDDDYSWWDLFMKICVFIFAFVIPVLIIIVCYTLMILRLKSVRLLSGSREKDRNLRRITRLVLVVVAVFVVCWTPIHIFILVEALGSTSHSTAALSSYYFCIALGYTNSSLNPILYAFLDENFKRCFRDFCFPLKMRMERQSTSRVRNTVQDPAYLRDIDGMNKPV

| Ki | SMILES |
| --- | --- |
| 0.58 to 0.66 nM | O=S(=O)(c1ccccc1-c1ccc(CNC2C[C@H]3CC[C@@H]2C3)cc1)N1CCCC1 (stereo partly drawn) [Example 4a, (1R,4S)-Bicyclo[2.2.1]hept-2-yl-[2′-(pyrrolidine-1-sulfonyl)-biphenyl-4-ylmethyl]-amine] |
| 5.03 to 6.34 nM | CC1(C)CCCN(Cc2ccc(-c3ccccc3S(=O)(=O)N3CCCC3)cc2)C1 [Example 4e, 3,3-Dimethyl-1-[2′-(pyrrolidine-1-sulfonyl)-biphenyl-4-ylmethyl]-piperidine] |
| 6.59 to 13 nM | O=S(=O)(c1ccccc1-c1ccc(CNC2CCOC2)cc1)N1CCCC1 (centres unmarked) [Example 4i, [2′-(Pyrrolidine-1-sulfonyl)-biphenyl-4-ylmethyl]-(tetrahydro-furan-3-yl)-amine] |
| 0.9 to 2.61 nM | CC(C)CNCc1ccc(-c2ccccc2S(=O)(=O)N2CCC[C@H]2C)cc1 [Example 4j, Isobutyl-[2′-((R)-2-methyl-pyrrolidine-1-sulfonyl)-biphenyl-4-ylmethyl]-amine] |
| 1.19 to 2.34 nM | C[C@@H]1COCCN1S(=O)(=O)c1ccccc1-c1ccc(CNCCC(C)(C)C)cc1 [Example 4k, (3,3-Dimethyl-butyl)-[2′-((R)-3-methyl-morpholine-4-sulfonyl)-biphenyl-4-ylmethyl]-amine] |
| 1.41 to 6.84 nM | O=S(=O)(c1ccccc1-c1ccc(CN2C[C@H]3CCC[C@@H]2C3)c(F)c1)N1CCCC1 [Example 4m, (1S,5R)-6-[3-Fluoro-2′-(pyrrolidine-1-sulfonyl)-biphenyl-4-ylmethyl]-6-aza-bicyclo[3.2.1]octane] |
| 2.68 to 6.78 nM | C[C@@H]1COCCN1S(=O)(=O)c1ccccc1-c1ccc(CNC2CC3CCC2C3)c(F)c1 (stereo partly drawn) [Example 4p, Bicyclo[2.2.1]hept-2-yl-[3-fluoro-2′-((R)-3-methyl-morpholine-4-sulfonyl)-biphenyl-4-ylmethyl]-amine] |
| 3.46 to 8.28 nM | CC(C)CNCc1ccc(-c2ccccc2S(=O)(=O)N2CCC[C@H]2C)cc1F [Example 4r, [3-Fluoro-2′-((R)-2-methyl-pyrrolidine-1-sulfonyl)-biphenyl-4-ylmethyl]-isobutyl-amine] |
| 5.76 nM | O=S(=O)(c1ncccc1-c1ccc(CNC2CC3CCC2C3)cc1)N1CCCC1 [Example 4t, (5S,6R)-Bicyclo[2.2.1]hept-2-yl-{4-[2-(pyrrolidine-1-sulfonyl)-pyridin-3-yl]-benzyl}-amine] |
| 6.13 nM | CC(C)CNCc1ccc(-c2ccccc2S(=O)(=O)N(C)C(C)C)cc1 [Example 4v, 4′-(Isobutylamino-methyl)-biphenyl-2-sulfonic acid isopropyl-methyl-amide] |
| 10.3 nM | CC(C)(C)CCNCc1ccc(-c2ncccc2S(=O)(=O)N2CCCC2)cc1 [Example 4w, (3,3-Dimethyl-butyl)-{4-[3-(pyrrolidine-1-sulfonyl)-pyridin-2-yl]-benzyl}-amine] |
| 12.3 nM | O=S(=O)(c1cccnc1-c1ccc(CNC2C[C@@H]3CC[C@H]2C3)cc1)N1CCCC1 (stereo partly drawn) [Example 4x, (1S,4R)-Bicyclo[2.2.1]hept-2-yl-{4-[3-(pyrrolidine-1-sulfonyl)-pyridin-2-yl]-benzyl}-amine] |
| 12.5 to 24.8 nM | COc1cc(-c2ccccc2S(=O)(=O)N2CCCC2)ccc1CNCC(C)C [Example 4y, Isobutyl-[3-methoxy-2′-(pyrrolidine-1-sulfonyl)-biphenyl-4-ylmethyl]-amine] |

| SMILES | Ki |
| --- | --- |
| C[C@@H]1COCCN1S(=O)(=O)c1ccccc1-c1ccc(CNCCC(C)(C)C)c(F)c1 [Example 4o] | 2.11 to 5.08 nM |

From patent publication US20100035873A1 (Pfizer Inc, priority 2008, published 2010)
